# Measurements published in article PMC12220852, “An adamantane‐based ligand as a novel chemical tool for thermosensory TRPM8 channel therapeutic modulation” (The Febs Journal, 2025).
# “Also recorded” adds a separate entry of the source.
# Key:
# [1] = system: capsaicin‐induced excitability in murine nociceptors; test: Multielectrode array (MEA): capsaicin-induced firing in nociceptors; format: cell-based; conditions: 1 μM compound, 0.5 μM capsaicin, P2/P1
# Method: Additionally, we investigated the effect of compound 23 on capsaicin and AITC‐induced excitability in murine nociceptors. Employing an IC50 value of 1 μM for TRPV1 and 5 μM for TRPA1 of firing inhibition by compound 23 (Fig. 4), we interrogated its ability to modulate neuronal excitability. As for TRPM8, our experimental design involved a protocol of dual agonist pulses interspersed with a washing pulse to minimize agonist‐induced channel desensitization. Compound 23 was administered 1 min prior to and during the second agonist pulse.
# Primary cultures of neonatal dorsal root ganglia were used for multielectrode array (MEA) and patch‐clamp experiments following established methodologies previously described. Neonatal dorsal root ganglia (DRGs) were obtained from Wistar rats (3–5 days old) and were isolated and digested with 0.25% (w/v) collagenase (type IA) in DMEM GlutaMax with 1% (v/v) penicillin/streptomycin (P/S) solution for 1 h at 37 °C in a 5% CO2 Thermo Scientific incubator. Following digestion, DRGs were mechanically dissociated and passed through a 100 μm cell strainer to obtain single‐cell suspensions. Suspensions were washed with DMEM GlutaMax with 10% (v/v) fetal bovine serum (FBS) and 1% (v/v) penicillin/streptomycin (P/S). Cells were then seeded in microelectrode array chambers coated with poly‐L‐lysine (8.3 μg·mL^−1) and laminin (5 μg·mL^−1). […]
# [2] = system: oxaliplatin‐induced peripheral cold allodynia in mice; test: Acetone drop test in oxaliplatin-induced cold allodynia; format: in vivo, mouse; conditions: 30 and 90 min after administration, oxaliplatin-treated mice
# Method: Given the inhibitory activity of compound 23 and the antinociceptive effects of TRPM8 antagonists described in models of oxaliplatin (OXP)‐induced neuropathy, we conducted a behavioral experiment in mice to assess the antinociceptive effects of compound 23 after repeated oxaliplatin administration. Oxaliplatin was intraperitoneally (i.p.) administered every other day for 5 days at 6 mg·kg^−1, reaching a total accumulative dose of 18 mg·kg^−1. […]
# The systemic effect of compound 23 was assessed after intraperitoneal administration at 5 mg·kg^−1, dissolved in a solution of 2% Cremophor and 5% DMSO in saline, with a volume of 10 mL·kg^−1. […] Nociceptive sensitivity was evaluated for 30‐ and 90‐min postinjection using the acetone drop test (7 days after the first oxaliplatin dose) and the dry ice test (9 days after the last oxaliplatin dose).
# The local effect of compound 23 or its vehicle was assessed 11 days after beginning the oxaliplatin treatment through subcutaneous intraplantar injection of 1 μg compound 23 or vehicle (2% Cremophor and 5% DMSO in saline) in the ventral side of the right hind paw, administered in a volume of 10 μL [66]. […] Nociceptive sensitivity was evaluated 30 and 90 min after the intraplantar injection with the acetone test. […]
smiles,measurement,setting,value
"O=C(COC(=O)c1ccccc1-c1ccccc1)NC12CC3CC(CC(C3)C1)C2 [Compound 23, 2‐((3S,5S,7S)‐adamantan‐1‐ylamino)‐2‐oxoethyl [1,1′‐biphenyl]‐2‐carboxylate]",attenuation of capsaicin‐induced firing,[1],30%
same,"effect on response to acetone, local treatment",[2]; 1 μg subcutaneous intraplantar (i.pl.),alleviated oxaliplatin‐induced cold sensitivity; also recorded: significant antinociceptive effect
same,"effect on licking response to acetone drops, systemic treatment","[2]; 5 mg·kg^−1 i.p., vs vehicle",no significant effect; also recorded: did not significantly affect
